Measured values as given in publication PMC6433934, “Preclinical Evaluation of Bispecific Adaptor Molecule Controlled Folate Receptor CAR-T Cell Therapy With Special Focus on Pediatric Malignancies” (Frontiers in Oncology, 2019).

Columns and labels:
E2-CAR-T cells = assay: 3H-EC17 radioligand binding to effector cells; parameters: species or system human; conditions: ^3H-EC17, E2-CAR-T cells ~100% EGFRt+, 1:1 CD8/CD4, 1.5 h room temperature, estimated from specific binding curve
Method: The bispecific affinities of EC17 CAM were assessed using ^3H-EC17 in cell-based radioligand binding assays. For binding to FR+ targets, KB and CHO-β cells were pre-seeded overnight in 24-well tissue culture plates and incubated with 0.1, 0.5, 1, 5, 10, 20, and 40 nM of ^3H-EC17 in FFRPMI for 2 h at 37°C. Afterwards, the cells were rinsed with phosphate-buffered saline (PBS, pH 7.4) and lysed with 1% sodium dodecyl sulfate. The whole cell lysates were quantitated for the level of radioactivity and cellular protein content by standard Pierce BCA protein assay. The number of ^3H-EC17 molecules bound per cell was calculated to determine the dissociation constants (Kd) for FRα (KB) and FRβ (CHO-β), respectively. […] Afterwards, the cells were washed 4x with PBS, lysed with 0.1% Triton X-100 plus 0.1 N NaOH and counted in a scintillation counter. The specific binding curve was generated by subtracting non-specific binding (^3H-EC17 plus “cold” EC17) from total binding (^3H-EC17) at each concentration of the radioligand.

OV90 = assay: EC17 dose response, co-culture with E2-CAR-T cells, LDH specific lysis; type: cell-based; conditions: OV90, E/T 1:1, 24 h co-culture
Description: To investigate EC17 CAM action in vitro, pure EGFRt-sorted CD4 and CD8 CAR-T cells were admixed in a 1:1 ratio and matching mock-transduced T cells were included per experimental design. Other than FR+/- isogenic pairs of AML and osteosarcoma cell lines, we added KB, MDA-MB-231 and OV90 to represent different histological tumor types and FR expression levels. All FR+ target cell lines were subjected to a direct ^3H-FA binding assay to quantitate the number of FR molecules bound/cell ([38]). Prior to co-culture experiments, cryopreserved CAR-T cells were allowed to recover for 2–3 days in T cell culture medium. All effector and target cells were pre-washed with FFRPMI to remove any exogenous FA that could compete against EC17. […]
For an EC17 dose response study, FR+ cancer cell lines (KB, MDA-MB-231, HOS-FRα, THP1-FRβ, OV90) were co-cultured with EGFRt-sorted E2-CAR-T cells at an effector-to-target (E/T) ratio of 1:1 in the presence of EC17 ranging from 0.1 pM to 100 μM in 10-fold increments. After 24 h of co-culture, supernatants were harvested to determine target cell killing by Promega's CytoTox 96® LDH assay kit and expressed as specific lysis (%) normalized to basal levels in the absence of EC17. […] The kinetics of target cell killing (i.e., % specific lysis) were quantified after 16 and 48 h of co-culture and normalized to basal levels in the absence of EC17 at defined E/T ratios. […]

[1] = tested on: HOS-FRα tumor-bearing mice; assay: Toxicity and CRS rescue with sodium fluorescein; type: in vivo; conditions: ~2.5 million CD8 and ~33 million CD4 E2-CAR-T cells
Method: Depending on the CAR-T cell dose and how EC17 is administered, tumor-bearing mice receiving FITC-specific CAR-T cells can experience severe CRS and varying degrees of body weight loss ([27], [33], [34]). Therefore, we developed a CRS grading system (0–5 scale) to empirically assess CRS toxicity from animals' gross morphology and social behavior to allow for better timing of CRS rescue. While grades 0 and 5 indicated normal (no CRS) or death (due to severe CRS), respectively, grades 1, 2, and 3–4 were considered mild, light-to-moderate, and severe CRS. In addition, all EC17 doses were intentionally given toward the end of any given day to allow potential CRS symptoms to develop overnight. On the days immediately following each EC17 dose, animals were scored and rescue agents such as sodium fluorescein, folic acid and leucovorin were used to mitigate CRS toxicity ([33]). In this particular instance, a batch of E2-CAR-T cells with a high EGFRt+ CD4/CD8 ratio (~93:7) was given to HOS-FRα tumor-bearing mice at a mixture of ~2.5 million CD8 and ~33 million CD4 on day 0. When EC17 was dosed, respectively, at 500, 100, and 500 nmol/kg on days 3, 10, and 12, low CRS (grades 1–2) was noted on days 4 and 11 but high CRS (grade 3) was noted on day 13. To mitigate the severe CRS toxicity, sodium fluorescein was intravenously administrated at ~96 mg/kg in the morning of day 13 and mouse plasma samples were collected 6 h later for analysis of CRS-associated cytokines.

## Nc1nc2ncc(CNc3ccc(C(=O)NC(CCC(=O)NCCNC(=S)Nc4ccc(-c5c6ccc(=O)cc-6oc6cc(O)ccc56)c(C(=O)O)c4)C(=O)O)cc3)nc2c(=O)[nH]1 (centres unmarked) [EC17, FA-(γ)-ethylenediamine-FITC]
E2-CAR-T cells
  Kd: ~0.142 µM
OV90; Homo sapiens, OV-90, curve fitted up to 100 nM
  EC50: 0.000418 µM
OV90
  Max. lysis: 15%
[1]; day 13, after EC17 500 nmol/kg on day 12
  CRS grade: 3
[1]; days 4 and 11, after EC17 500 and 100 nmol/kg on days 3 and 10
  CRS grade: 1–2
